In test [1] the target is T1, Human fibrinogen receptor (αIIbβ3) (Homo sapiens, UniProt P05106+P08514).
T1 construct: Human fibrinogen receptor (αIIbβ3) was purified from outdated platelets; from tissue; host or cells: outdated human platelets
The experiment in a line: Purified IIb/IIIa receptor assay (solid phase receptor assay, competition with biotinylated vitronectin). The class given is binding. The note with it: read-out: IIb/IIIa IC50. A digest of the protocol:
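Purified platelet αIIbβ3 coated overnight at 4 °C in TBS with 1.0 mM Ca/Mg/Mn, pH 7.4, then BSA-blocked. Compounds (top 1.0×10^−4 M) competed with 1 nM biotinylated vitronectin for 2 h at room temperature. Bound label detected by HRP anti-biotin, A450; values normalized to no-competitor controls, four-parameter fit.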

In a further test the test system is platelet rich plasma. The experiment in a line: Human platelet rich plasma assay (ADP induced platelet aggregation). The class given is cell-based. The conditions noted are these: ADP induced platelet aggregation in human platelet rich plasma, read-out: Human PRP. Here is the method:
Human Platelet Rich Plasma Assays
Healthy aspirin free donors were selected from a pool of volunteers. The harvesting of platelet rich plasma and subsequent ADP induced platelet aggregation assays were performed as described in Zucker, M. B., “Platelet Aggregation Measured by the Photometric Method”, Methods in Enzymology 169(1989):117-133. Standard venipuncture techniques using a butterfly allowed the withdrawal of 45 mL of whole blood into a 60 mL syringe containing 5 mL of 3.8% trisodium citrate. Following thorough mixing in the syringe, the anti-coagulated whole blood was transferred to a 50 mL conical polyethylene tube. The blood was centrifuged at room temperature for 12 minutes at 200×g to sediment non-platelet cells. Platelet rich plasma was removed to a polyethylene tube and stored at room temperature until used. Platelet poor plasma was obtained from a second centrifugation of the remaining blood at 2000×g for 15 minutes. Platelet counts are typically 300,000 to 500,000 per microliter. Platelet rich plasma (0.45 mL) was aliquoted into siliconized cuvettes and stirred (1100 rpm) at 37° C. for 1 minute prior to adding 50 uL of pre-diluted test compound. After 1 minute of mixing, aggregation was initiated by the addition of 50 uL of 200 uM ADP. Aggregation was recorded for 3 minutes in a Payton dual channel aggregometer (Payton Scientific, Buffalo, N.Y.). The percent inhibition of maximal response (saline control) for a series of test compound dilutions was used to determine a dose response curve.

The target in test [2] is T2, Human vitronectin receptor (αvβ3) (Homo sapiens, UniProt P05106+P06756).
T2 construct: Human vitronectin receptor (αvβ3) was purified from human placenta; from tissue; host or cells: human placenta
The experiment in a line: Vitronectin adhesion assay (solid phase receptor assay, competition with biotinylated vitronectin). The class given is binding. The note with it: read-out: AvB3 IC50. The method, boiled down: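 Purified human αvβ3 coated overnight at 4 °C in TBS with 1.0 mM Ca++, Mg++, Mn++, pH 7.4; compounds (top final 1.0×10^−4 M) competed with 1 nM biotinylated vitronectin for 2 h at room temperature. Bound ligand detected by HRP anti-biotin/OPD at A450; values normalized to no-competitor controls, four-parameter curve fit.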

Where a name gives a salt, the structure may show the parent alone. Read-outs that look alike come from different tables or passages of the source.

On to `N=C(N)Nc1cccc(C(=O)NCC(=O)NC(CC(=O)O)c2cc(Cl)cc(Br)c2O)c1` (racemic) [Example 233, (±)β-[[2-[[[3-[(aminoiminomethyl)amino]phenyl]carbonyl]amino]acetyl]amino]-3-bromo-5-chloro-2-hydroxybezenepropanoic acid, trifluoroacetate salt, monohydrate], for which the IC50 in test [1] was 647 nM; in the test with platelet rich plasma it was over 200000 nM; in test [2], 3.31 nM.
Turning to `C#C[C@H](CC(=O)O)NC(=O)CNC(=O)c1cccc(NC(=N)N2CCCC2)c1` [Example 34, βS-[[2-[[[3-[[imino(1-pyrrolidinyl)methyl]amino]phenyl]carbonyl]amino]acetyl]amino]-4-pentynoic acid, trifluoroacetate salt], the IC50 in test [1] was 269 nM; with platelet rich plasma (Homo sapiens, Platelet) it was over 200000 nM; in test [2], 94.3 nM.
Consider “3S-[[2-[[[3-[(aminoiminomethyl)amino]phenyl]carbonyl]amino]acetyl]amino]-4-hydroxybutanoic acid [Example 86]”, for which the IC50 is 246 nM in test [1], over 200000 nM in the test on platelet rich plasma and 8.79 nM in test [2].
Take `NC(=S)Nc1cccc(C(=O)NCC(=O)NC(CC(=O)O)c2ccccc2)c1` (stereo not drawn) [Example 117, β-[[2-[[[3-[(aminothioxomethyl)amino]phenyl]carbonyl]amino]acetyl]amino]benzenepropanoic acid]: the IC50 in test [1] was 20100 nM; in the test on platelet rich plasma (Homo sapiens, Platelet) it was over 200000 nM; in test [2] it was 60.1 nM.
The like results for `N=C(N)Nc1cc(C(=O)NCC(=O)NC(CC(=O)O)c2ccccc2)ccc1Cl` (stereo not drawn) [Example 150, β-[[2-[[[3-[(aminoiminomethyl)amino]-4-chlorophenyl)carbonyl]amino]acetyl]amino]benzenepropanoic acid] were, in that order, 631 nM, over 200000 nM and 5.74 nM.
In the same order, the values of `N#C/N=C(/NCc1ccccn1)Nc1cccc(C(=O)NCC(=O)NC(CC(=O)O)c2ccccc2)c1` (stereo not drawn) [Example 144, β-[[2-[[[3-[[(cyanoimino)[2-pyridinylmethyl)amino]methyl]amino]phenyl]carbonyl]amino]acetyl]amino]benzenepropanoic acid, bis(trifluoroacetate)salt] are 5830 nM, over 200000 nM and 55.3 nM.
In the same order, the values of `N#C/N=C(/NCc1cccnc1)Nc1cccc(C(=O)NCC(=O)NC(CC(=O)O)c2ccccc2)c1` (stereo not drawn) [Example 146, β-[[2-[[[3-[[(cyanoimino)[3-pyridinylmethyl)amino]methyl]amino]phenyl]carbonyl]amino]acetyl]amino]benzenepropanoic acid, bis(trifluoroacetate)salt] are 879 nM, over 200000 nM and 14.3 nM.
For `N=C(N)Nc1cccc(C(=O)NCC(=O)NC(CCSc2ccccc2C(=O)O)CC(=O)O)c1` (racemic) [60(B), (±)2-[3-[[2-[[[3-[(aminoiminomethyl)amino]phenyl)carbonyl]amino]acetyl]amino]-4-carboxybutyl]thio]benzoic acid, trifluoroacetate salt], the IC50 in test [1] was 72.7 nM; with platelet rich plasma, over 200000 nM; in test [2] it was 1.21 nM.
Consider `C#C[C@H](CC(=O)O)NC(=O)CNC(=O)c1cccc(NC(=O)NCc2ccccc2)c1` [Example 44, 3S-[[2-[[[3-[[[(phenylmethyl)amino]carbonyl]amino]phenyl]carbonyl]amino]acetyl]amino]-4-pentynoic acid], for which the IC50 in test [1] was 998 nM; in the test with platelet rich plasma (Homo sapiens, Platelet), over 20000 nM; in test [2] it was 0.33 nM.
The like results for `O=C(O)CC(NC(=O)CNC(=O)c1cc(NC2=NCCCCC2)cc(NC2=NCCCCC2)c1)c1cccnc1` (racemic) [Example 22, (±)β-[[2-[[[3,5-bis[(3,4,5,6-tetrahydro-2H-azepin-7-yl)amino]phenyl]carbonyl]amino]acetyl]amino]pyridine-3-propanoic acid, tris(trifluoroacetate)salt] were, in that order, 280 nM, over 200000 nM and 1.37 nM.
The like results for `N=C(N)Nc1cccc(C(=O)NCC(=O)NC(CC(=O)O)c2cc(Br)cc(Br)c2O)c1` (racemic) [Example 227, (±)β-[[2-[[[3-[(aminoiminomethyl)amino]phenyl]carbonyl]amino]acetyl]amino]-3,5-dibromo-2-hydroxybenzenepropanoic acid, trifluoroacetate salt, monohydrate] were, in that order, 2640 nM, over 200000 nM and 14.1 nM.
In the same order, the values of `COC(=O)CC(CC(=O)O)NC(=O)CNC(=O)c1cccc(NC(=N)N)c1` (racemic) [Example 54, (±)hydrogen methyl 3-[[2-[[[3-[(aminoiminomethyl)amino]phenyl]carbonyl]amino]acetyl]amino]pentanedioate, trifluoroacetate salt] are 175 nM, over 200000 nM and 10.7 nM.
`N=C(Nc1cccc(C(=O)NCC(=O)NC(CC(=O)O)c2cccnc2)c1)c1ccccc1` (racemic) [Example 26, (±)β-[[2-[[[3-[(iminophenylmethyl]amino]phenyl]carbonyl]amino]acetyl]amino]pyridine-3-propanoic acid, bis(trifluoroacetate)salt]: the IC50 is 809 nM in test [1]; over 200000 nM in the test with platelet rich plasma (Homo sapiens, Platelet); 14.2 nM in test [2].
In the same order, the values of `N#C/N=C(\N)Nc1cccc(C(=O)NCC(=O)NC(CC(=O)O)c2ccccc2)c1` (stereo not drawn) [Example 138, β-[[2-[[[3-[[amino(cyanoimino)methyl]amino]phenyl]carbonyl]amino]acetyl]amino]benzenepropanoic acid] are 5820 nM, over 200000 nM and 36.9 nM.
The like results for `O=C(O)CC(NC(=O)CNC(=O)c1cccc(NC2=NCCN2)c1)c1cc(Cl)cc(Cl)c1` (racemic) [Example 191, (±)β-[[2-[[[3-[(4,5-dihydro-1H-imidazol-2-yl)amino]phenyl]carbonyl]amino]acetyl]amino]-3,5-dichlorobenzenepropanoic acid, trifluoroacetate salt] were, in that order, 70.3 nM, over 20000 nM and 0.49 nM.
The like results for `O=C(O)CC(NC(=O)CNC(=O)c1cccc(NC(=O)Nc2ccccc2)c1)c1cccnc1` (stereo not drawn) [Example 108, β-[[2-[[[3-[[(phenylamino]carbonyl]amino]phenyl]carbonyl]amino]acetyl]amino]pyridine-3-propanoic acid, trifluoroacetate salt] were, in that order, 4870 nM, over 200000 nM and 25.2 nM.
Take `O=C(O)CCNC(=O)Nc1cccc(C(=O)NCC(=O)NC(CC(=O)O)c2cccnc2)c1` (stereo not drawn) [Example 129, β-[[2-[[[3-[[[(2-carboxyethyl)amino]carbonyl]aminophenyl]carbonyl]amino]acetyl]amino]pyridine-3-propanoic acid, trifluoroacetate salt]: the IC50 in test [1] was 9460 nM; in the test on platelet rich plasma (Homo sapiens, Platelet), over 200000 nM; in test [2], 68.9 nM.
In the same order, the values of `O=C(O)CC(NC(=O)CNC(=O)c1cccc(NC2=NCCCN2)c1)c1cc(Cl)cc(Cl)c1` (racemic) [Example 200, (±)3,5-dichloro-β-[[2-[[[3-[(1,4,5,6-tetrahydropyrimidin-2-yl)amino]phenyl]carbonyl]amino]acetyl]amino]benzenepropanoic acid, trifluoroacetate salt] are 1100 nM, over 200000 nM and 0.48 nM.
In the same order, the values of `N=C(N)Nc1cccc(C(=O)NCC(=O)NC(CC(=O)O)c2ccc(-c3ccccc3)cc2)c1` (racemic) [Example 37, (±)β-[[2-[[[3-[(aminoiminomethyl)amino]phenyl]carbonyl]amino]acetyl]amino][1,1′-biphenyl]-4-propanoic acid, trifluoroacetate salt] are 13.9 nM, over 20000 nM and 0.88 nM.
For the compound `C#C[C@H](CC(=O)O)NC(=O)CNC(=O)c1c(F)c(F)cc(NC(=N)N)c1F` [Example 35, βS-[[2-[[[3-[(aminoiminomethyl)amino]-2,5,6-trifluorophenyl]carbonyl]amino]acetyl]amino]-4-pentynoic acid, trifluoroacetate salt], the IC50 in test [1] came out at 6.21 nM; with platelet rich plasma (Homo sapiens, Platelet) it was 69500 nM; in test [2], 57.1 nM.
